Experimental findings from patent US4650753A, “Novel substrates for use in measuring the concentration of kallikrein in urine” (Nitto Boseki Co., Ltd., priority 1984, dated 1987) are described below.

In one experiment the target is T1, Plasmin (PL) (Homo sapiens, UniProt P00747).
T1 construct: purchased The Green Cross Corporation Lot No. PL-35
Nature of the experiment: Substrate specificity test: hydrolysis by plasmin, colorimetric. In kind it is biochemical. Particulars: for Absorbance (O.D.), PL: 700 nm (CHA substrate, pentacyanoamineferroate), S0 = 0.4 m mole, pH 7.8, 37° C., 5 minutes, 0.25 CU/ml enzyme. On the procedure:
(§1) The specificities of newly synthesized substrates were tested by reacting each of them with various enzymes as follows.
(§2) (1) Substrate solution: 2 m moles/liter.H2 O
(§3) (2) Buffer solutions: 50 m moles of tris(hydroxymethyl)aminomethane/hydrochloric acid buffer solution and 150 m moles/liter of NaCl solution were used, and the reaction pH were specified with respect to the enzymes as follows. […]
(§4) (4) Reaction stopper (PNA): 10%-acetic acid
(§5) (5) Chromogenic reagent (CHA): Pentacyanoamineferroate
(§6) (6) Method of determination:
(§7) 0.3 Milliliter of the buffer solution and 0.1 ml of the enzyme reagent were taken in a hard glass test tube of which surface being treated with silicone, or a plastic test tube and preheated in a thermostat at 37° C. for 5 minutes so as to conduct the enzymatic reaction. Precisely 5 minutes after the reaction was started, 2.0 ml of reaction stopper solution or reaction terminating chromogenic reagent was added to terminate the enzymatic reaction. After the enzymatic reaction was completed, the reaction mixture was allowed to stand at 37° C. for 10 minutes, and then the absorbance at 405 nm or 700 nm was measured.

The next experiment deals with T2, Thrombin (TH) (Bos taurus, UniProt P00735).
T2 construct: purchased Mochida Pharmaceutical Co., Ltd. Lot No. 65146
Nature of the experiment: Substrate specificity test: hydrolysis by thrombin, colorimetric. Format: biochemical, Bovine. The following applies: for Absorbance (O.D.), TH: 700 nm (CHA substrate, pentacyanoamineferroate), S0 = 0.4 m mole, pH 8.5, 37° C., 5 minutes, 4.0 NIH/ml enzyme. On the procedure: as §1, §2, §3, §4, §5, §6, §7

The target in a further experiment is T3, Urokinase (UK) (Homo sapiens, UniProt P00749).
T3 construct: purchased Mochida Pharmaceutical Co., Ltd. Lot No. 2C239
Nature of the experiment: Substrate specificity test: hydrolysis by urokinase, colorimetric. In kind it is biochemical. The following applies: for Absorbance (O.D.), UK: 700 nm (CHA substrate, pentacyanoamineferroate), S0 = 0.4 m mole, pH 8.2, 37° C., 5 minutes, 1000 U/ml enzyme. On the procedure: as §1, §2, §3, §4, §5, §6, §7

The target of experiment [1] is T4, Human kallikrein in urine (HUK) (Homo sapiens, UniProt P06870).
T4 construct: purchased The Green Cross Corporation Lot No. Y1003SM
T4 sequence (P06870 25-262): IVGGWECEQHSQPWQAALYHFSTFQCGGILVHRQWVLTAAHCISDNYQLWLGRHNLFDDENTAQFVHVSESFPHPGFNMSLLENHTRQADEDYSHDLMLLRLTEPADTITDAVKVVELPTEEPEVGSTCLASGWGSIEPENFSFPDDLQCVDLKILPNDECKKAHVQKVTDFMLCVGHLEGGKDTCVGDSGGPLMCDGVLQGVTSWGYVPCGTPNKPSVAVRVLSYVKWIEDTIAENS
Nature of the experiment: Substrate specificity test: hydrolysis by human kallikrein in urine, colorimetric. In kind it is biochemical. Particulars: for Absorbance (O.D.), HUK: 700 nm (CHA substrate, pentacyanoamineferroate), S0 = 0.4 m mole, pH 9.0, 37° C., 5 minutes, 0.1 U/ml enzyme. On the procedure: as §1, §2, §3, §4, §5, §6, §7

Setting [2] is: PS-2103N given as 100, S0 = 0.4 m mol.

T1 sequence (P00747 581-810 limits assumed): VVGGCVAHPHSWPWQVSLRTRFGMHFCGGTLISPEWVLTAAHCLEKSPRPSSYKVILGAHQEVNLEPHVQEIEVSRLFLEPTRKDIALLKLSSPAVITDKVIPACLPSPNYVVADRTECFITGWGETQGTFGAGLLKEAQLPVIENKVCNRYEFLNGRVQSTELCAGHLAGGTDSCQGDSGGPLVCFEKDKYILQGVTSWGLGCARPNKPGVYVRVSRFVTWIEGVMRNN
T1 sequence (P00747 97-580 partner limits assumed): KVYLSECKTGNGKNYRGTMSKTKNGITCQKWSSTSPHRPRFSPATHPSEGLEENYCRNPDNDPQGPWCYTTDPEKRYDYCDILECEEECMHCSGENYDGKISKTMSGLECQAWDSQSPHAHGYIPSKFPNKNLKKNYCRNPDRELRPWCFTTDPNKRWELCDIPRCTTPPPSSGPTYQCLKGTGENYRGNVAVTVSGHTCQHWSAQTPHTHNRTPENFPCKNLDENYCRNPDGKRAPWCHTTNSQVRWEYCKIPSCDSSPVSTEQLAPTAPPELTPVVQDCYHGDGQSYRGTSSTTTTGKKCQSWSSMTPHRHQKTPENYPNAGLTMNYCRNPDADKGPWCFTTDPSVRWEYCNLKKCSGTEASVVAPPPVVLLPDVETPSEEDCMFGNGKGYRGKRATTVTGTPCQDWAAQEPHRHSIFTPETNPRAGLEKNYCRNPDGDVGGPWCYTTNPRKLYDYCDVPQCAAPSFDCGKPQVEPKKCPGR

H-D-Ala-Phe-Arg-CHA [PS-2103]: on Plasmin (PL), the “Absorbance (O.D.), PL” value was 0.011 OD. Further, the “Relative reactivity to enzymes, PL” value at Plasmin (PL) (setting [2]) is reported as 4. Also, the reactivity to plasmin on Plasmin (PL) (relative to PS-2103N = 100) stood at 4%. Further, the “Absorbance (O.D.), TH” value on Thrombin (TH) is on record as 0.007 OD. In addition, on Thrombin (TH) (setting [2]), the “Relative reactivity to enzymes, TH” value came out at 7. This substance yielded a reactivity to thrombin at Thrombin (TH) (relative to PS-2103N = 100) of 7%. Besides, the “Absorbance (O.D.), UK” value on Urokinase (UK) is on record as 0.0 OD. Besides, the “Relative reactivity to enzymes, UK” value at Urokinase (UK) (setting [2]) came out at 0. On Urokinase (UK) (relative to PS-2103N = 100), the reactivity to urokinase worked out at 0%. For the same substance, the “Absorbance (O.D.), HUK” value in experiment [1] was found to be 0.599 OD. For the same substance, in experiment [1] (setting [2]), the “Relative reactivity to enzymes, HUK” value is recorded as 242.

Take H-D-PGlu-Phe-Arg-CHA [PS-2102]: the “Absorbance (O.D.), PL” value at Plasmin (PL) is on record as 0.016 OD. The “Absorbance (O.D.), TH” value on Thrombin (TH) is 0.005 OD. The “Absorbance (O.D.), UK” value on Urokinase (UK) was determined as 0.0 OD. Moreover, in experiment [1], the “Absorbance (O.D.), HUK” value stood at 0.128 OD.

As to H-D-Pro-Phe-Arg-CHA [PS-2100], the “Absorbance (O.D.), PL” value on Plasmin (PL) was 0.014 OD. Moreover, on Thrombin (TH), the “Absorbance (O.D.), TH” value is 0.016 OD. Besides, the “Absorbance (O.D.), UK” value at Urokinase (UK) is 0.003 OD. For the same substance, in experiment [1], the “Absorbance (O.D.), HUK” value was 0.244 OD.
